Results: the NIST ThermoML archive (doi:10.1016/j.jct.2017.03.027)

Columns and labels:
[1] = molar heat capacity at constant pressure; xn = mol fraction of the nth substance listed; details: 100 kPa, Liquid, Large sample (1 g) DSC
[2] = xn = mol fraction of the nth substance listed; details: 100 kPa, Liquid, Vibrating tube method

Cc1ccc(C(C)C)cc1 [1-(1-methylethyl)-4-methylbenzene] + CCO
Details | mass density, 298.15 K [kg/m3] | mass density, 308.15 K [kg/m3] | mass density, 318.15 K [kg/m3] | mass density, 328.15 K [kg/m3] | molar heat capacity at constant pressure, 298.6 K [J/K/mol] | molar heat capacity at constant pressure, 308.5 K [J/K/mol] | molar heat capacity at constant pressure, 318.5 K [J/K/mol] | molar heat capacity at constant pressure, 328.4 K [J/K/mol]
[1], x1 = 0.0494 | – | – | – | – | 121.2 | 126.1 | 130.8 | 135.6
[1], x1 = 0.0995 | – | – | – | – | 130 | 134.7 | 140.1 | 145.9
[1], x1 = 0.2 | – | – | – | – | 146.5 | 152.2 | 157.8 | 163.8
[1], x1 = 0.3009 | – | – | – | – | 162.2 | 168.5 | 174.7 | 181
[1], x1 = 0.4037 | – | – | – | – | 177.7 | 183.8 | 190.2 | 197
[1], x1 = 0.5034 | – | – | – | – | 192.6 | 199 | 205.4 | 211.9
[1], x1 = 0.6023 | – | – | – | – | 205.5 | 211.8 | 219.4 | 225.1
[1], x1 = 0.7017 | – | – | – | – | 217.6 | 224.3 | 230.7 | 236.9
[1], x1 = 0.802 | – | – | – | – | 229.2 | 235.3 | 240.9 | 247
[1], x1 = 0.897 | – | – | – | – | 238.6 | 243.1 | 248.4 | 253.8
[1], x1 = 0.9509 | – | – | – | – | 240.2 | 243.9 | 248.9 | 254.1
[1], x1 = 1 | – | – | – | – | 240.3 | 244.7 | 249.4 | 254.4
[2], x1 = 0.0494 | 793.49 | 784.81 | 775.96 | 766.9 | – | – | – | –
[2], x1 = 0.0995 | 800.72 | 792.02 | 783.15 | 774.08 | – | – | – | –
[2], x1 = 0.2 | 812.35 | 803.65 | 794.79 | 785.71 | – | – | – | –
[2], x1 = 0.3009 | 821.26 | 812.6 | 803.77 | 794.75 | – | – | – | –
[2], x1 = 0.4037 | 828.42 | 819.8 | 811.02 | 802.06 | – | – | – | –
[2], x1 = 0.5034 | 834.18 | 825.62 | 816.91 | 808.04 | – | – | – | –
[2], x1 = 0.6023 | 838.73 | 830.22 | 821.58 | 812.79 | – | – | – | –
[2], x1 = 0.7017 | 842.86 | 834.43 | 825.88 | 817.21 | – | – | – | –
[2], x1 = 0.802 | 846.53 | 838.18 | 829.75 | 821.21 | – | – | – | –
[2], x1 = 0.897 | 849.61 | 841.37 | 833.06 | 824.68 | – | – | – | –
[2], x1 = 0.9509 | 851.34 | 843.19 | 834.99 | 826.74 | – | – | – | –
[2], x1 = 1 | 852.93 | 844.89 | 836.81 | 828.69 | – | – | – | –
